Experimental data published in ChEMBL document CHEMBL2384925, “Structure-activity relationships for 4-anilinoquinoline derivatives as inhibitors of the DNA methyltransferase enzyme DNMT1” (2013).

How the values were obtained:
[1] = biological target: DNA (cytosine-5)-methyltransferase 1 (Homo sapiens) (UniProt P26358); assay: Inhibition of DNMT1 in human HCT116 cells at 5 uM after 24 hrs by Western blot analysis relative to control; format: cell-based; conditions: HCT-116
[2] = tested on: HCT-116; assay: Cytotoxicity against human HCT116 cells assessed as viability; format: functional; conditions: read-out: TD50 (the source's name)

Sequence of DNA (cytosine-5)-methyltransferase 1 (Homo sapiens) (P26358 whole entry): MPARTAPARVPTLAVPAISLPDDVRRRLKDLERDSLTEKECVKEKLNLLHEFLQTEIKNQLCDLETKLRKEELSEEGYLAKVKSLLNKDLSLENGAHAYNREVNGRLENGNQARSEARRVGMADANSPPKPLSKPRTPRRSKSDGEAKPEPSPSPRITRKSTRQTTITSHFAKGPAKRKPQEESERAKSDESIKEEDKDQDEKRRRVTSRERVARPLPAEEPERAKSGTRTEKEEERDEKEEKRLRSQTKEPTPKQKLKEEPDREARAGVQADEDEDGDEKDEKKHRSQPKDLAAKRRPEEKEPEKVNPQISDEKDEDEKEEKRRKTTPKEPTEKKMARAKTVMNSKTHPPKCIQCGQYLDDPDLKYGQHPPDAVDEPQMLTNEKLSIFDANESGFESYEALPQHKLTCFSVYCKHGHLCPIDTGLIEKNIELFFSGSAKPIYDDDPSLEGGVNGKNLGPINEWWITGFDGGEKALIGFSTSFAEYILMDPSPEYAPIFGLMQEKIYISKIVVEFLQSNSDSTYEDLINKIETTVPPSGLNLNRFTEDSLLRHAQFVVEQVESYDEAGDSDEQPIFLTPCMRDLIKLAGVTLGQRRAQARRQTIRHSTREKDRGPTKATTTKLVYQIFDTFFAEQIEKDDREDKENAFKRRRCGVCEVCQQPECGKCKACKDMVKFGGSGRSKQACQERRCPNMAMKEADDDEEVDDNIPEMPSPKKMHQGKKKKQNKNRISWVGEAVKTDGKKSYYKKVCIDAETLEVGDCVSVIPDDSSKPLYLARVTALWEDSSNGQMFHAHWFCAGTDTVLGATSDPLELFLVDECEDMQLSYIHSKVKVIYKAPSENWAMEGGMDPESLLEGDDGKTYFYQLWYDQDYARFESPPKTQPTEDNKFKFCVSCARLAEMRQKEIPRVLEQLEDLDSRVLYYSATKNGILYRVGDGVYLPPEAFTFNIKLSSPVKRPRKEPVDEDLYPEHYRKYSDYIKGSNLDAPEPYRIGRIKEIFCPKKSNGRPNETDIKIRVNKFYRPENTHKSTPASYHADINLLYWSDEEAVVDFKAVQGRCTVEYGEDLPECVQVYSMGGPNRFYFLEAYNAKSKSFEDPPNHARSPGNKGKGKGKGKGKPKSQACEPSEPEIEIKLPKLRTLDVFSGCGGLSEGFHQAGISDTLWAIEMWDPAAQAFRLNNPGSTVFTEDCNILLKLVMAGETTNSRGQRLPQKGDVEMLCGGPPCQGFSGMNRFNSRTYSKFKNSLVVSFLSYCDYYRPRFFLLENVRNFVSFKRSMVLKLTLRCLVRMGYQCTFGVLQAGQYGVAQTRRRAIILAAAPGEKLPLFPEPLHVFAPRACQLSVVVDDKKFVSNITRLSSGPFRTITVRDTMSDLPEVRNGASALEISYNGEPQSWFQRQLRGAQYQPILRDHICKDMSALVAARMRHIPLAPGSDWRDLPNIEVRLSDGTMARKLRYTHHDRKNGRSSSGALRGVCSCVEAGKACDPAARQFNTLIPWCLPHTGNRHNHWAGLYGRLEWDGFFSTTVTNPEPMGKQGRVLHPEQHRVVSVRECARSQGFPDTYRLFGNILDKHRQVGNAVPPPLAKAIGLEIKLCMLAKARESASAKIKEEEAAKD

Row | SMILES | inhibition [1] [%] | CC50 [2] [µM]
1 | CN(C)c1ccc2nccc(Nc3ccc(NC(=O)c4ccc(Nc5cc[n+](C)cc5)cc4)cc3)c2c1 | 45 | 50
2 | C/C(=N\N=C(N)N)c1cccc(C(=O)Nc2ccc(Nc3ccnc4ccc(N(C)C)cc34)cc2)c1 | 40 | 25
3 | C/C(=N\N=C(N)N)c1ccc(NC(=O)c2ccc(Nc3ccnc4ccc(N(C)C)cc34)cc2)cc1 | 30 | 25
4 | C/C(=N\N=C(N)N)c1ccc(C(=O)Nc2ccc(Nc3ccnc4ccc(N(C)C)cc34)cc2)cc1 | 34 | 25
5 | Cc1cc(Nc2ccc(C(=O)Nc3ccc(Nc4ccnc5ccccc45)cc3)cc2)nc(N)n1 | 75 | 25
6 | Cc1cc(Nc2ccc(NC(=O)c3ccc(Nc4ccnc5ccc(N(C)C)cc45)cc3)cc2)nc(N)n1 | 43 | 25
7 | Cc1cc(Nc2ccc(NC(=O)c3ccc(Nc4ccnc5c(F)c(F)c(F)cc45)cc3)cc2)nc(N)n1 | 18 | 25
8 | CN(C)c1ccc2nccc(Nc3ccc(C(=O)Nc4ccc(Nc5cc[n+](C)cc5)cc4)cc3)c2c1 | 16 | 50
9 | Cc1cc(Nc2ccc(NC(=O)c3ccc(Nc4ccnc5ccccc45)cc3)cc2)nc(N)n1 | 97 | 25
10 | Cc1cc(Nc2cccc(C(=O)Nc3ccc(Nc4ccnc5ccccc45)cc3)c2)nc(N)n1 | 85 | 25
11 | C/C(=N\N=C(N)N)c1cccc(NC(=O)c2ccc(Nc3ccnc4ccc(N(C)C)cc34)cc2)c1 | 0 | 25
12 | Cc1cc(Nc2ccc(NC(=O)c3ccc(Nc4ccnc5ccc(Cl)cc45)cc3)cc2)nc(N)n1 | 30 | 25

The next lines start with results.

Row | inhibition [1] [%] | SMILES | CC50 [2] [µM]
13 | 0 | C[n+]1ccc(Nc2ccc(NC(=O)c3ccc(Nc4ccnc5ccc(N)cc45)cc3)cc2)cc1 | 50
14 | 75 | CN(C)c1ccc2nccc(Nc3ccc(NC(=O)c4cccc(Nc5cc[n+](C)cc5)c4)cc3)c2c1 | 25
15 | 0 | C[n+]1ccc(Nc2cccc(NC(=O)c3ccc(Nc4ccnc5ccccc45)cc3)c2)cc1 | 12.5
16 | 0 | CN(C)c1ccc2nccc(Nc3ccc(C(=O)Nc4cccc(Nc5cc[n+](C)cc5)c4)cc3)c2c1 | 25
17 | 0 | C[n+]1ccc(Nc2ccc(NC(=O)c3ccc(Nc4ccnc5ccccc45)cc3)cc2)cc1 | 25
18 | 0 | C[n+]1ccc(Nc2ccc(C(=O)Nc3ccc(Nc4ccnc5ccccc45)cc3)cc2)cc1 | 12.5
19 | 80 | C[n+]1ccc(Nc2cccc(C(=O)Nc3ccc(Nc4ccnc5ccc(N)cc45)cc3)c2)cc1 | 25
20 | 2 | C[n+]1ccc(Nc2cccc(NC(=O)c3ccc(Nc4ccnc5ccc(N)cc45)cc3)c2)cc1 | 12.5
21 | 0 | C[n+]1ccc(Nc2ccc(C(=O)Nc3ccc(Nc4ccnc5ccc(N)cc45)cc3)cc2)cc1 | 50
22 | 80 | C[n+]1ccc(Nc2cccc(C(=O)Nc3ccc(Nc4ccnc5ccccc45)cc3)c2)cc1 | 25
